# What was measured:
# Type in all cases: in vivo
# rats [1] = assay: Influence of pimozide on the stereotypies caused in rats; settings: 8 mg.kg^-1 intraperitoneal
# Description: (§1) The tests were carried out on batches of 6 rats for each dose; immediately after the oral or intraperitoneal administration, the animals are placed in individual, transparent plastic 20×10×10 cm boxes provided with a pierced stainless steel lid. The stereotyped movements are rated from 0 to 3, in accordance with the method described by Simon and Chermat (J. Pharmacol. (Paris), 1972, 3, 235-238) every 10 minutes until they disappear in all the animals. The detailed curves are plotted and the surface area of the curve is calculated as described in the above reference.
# Research into the antagonistic effects of the stereotypies caused in rats by the medicament according to the invention
# (a) Influence of pimozide
# At time 0, pimozide (1 mg.kg^-1) or distilled water is administered intraperitoneally; after 30 minutes, all the animals receive, by intraperitoneal administration, the medicament according to the invention, obtained in accordance with Example III (8 mg.kg^-1). The stereotypies are assessed as described above. The surface area of the curve of the stereotypies is calculated.
# mice [2] = assay: Anti-apomorphine activity in mice (hypothermia caused by apomorphine); settings: comparison of isomers; 32 mg/kg administered orally; schematic grades; listed as α diastereoisomer, 32 mg/kg
# mice [3] = assay: Anti-reserpine activity in mice (reserpine hypothermia); settings: comparison of isomers; 32 mg/kg administered orally; schematic grades; listed as α diastereoisomer, 32 mg/kg
# Description: Anti-reserpine activity in mice
# At time 0, the mice receive reserpine (2.5 mg.kg^-1) by intraperitoneal administration.
# After 4 hours, when the hypothermia is significant (30 to 31°C.), the substance to be studied is administered intraperitoneally or orally. The rectal temperature is measured, using a probe, carrying a thermoelectric couple, inserted to a constant depth, every 30 minutes for 2 hours.
# mice [4] = assay: Motor activity in mice (activity meters with photoelectric cells); settings: comparison of isomers; 32 mg/kg administered orally; schematic grades; listed as α diastereoisomer, 32 mg/kg
# Description: The motor activity was determined with the aid of activity meters having photoelectric cells (Boissier and Simon, Arch. int. Pharmacodyn. 1965, 158, 212-221). A minimum of 10 animals was always used per batch.
# The mice are placed in the activity meter just after the oral or intraperitoneal administration of the product acccording to the invention, obtained in accordance with Example I. The motor activity is measured as from the introduction into the activity meter up to the 60th minute. The counters are read after 30 minutes, then reset to 0 and read every 10 minutes for 30 minutes.
# rats [5] = assay: Influence of alpha-methyltyrosine on the stereotypies caused in rats; settings: 8 mg.kg^-1 intraperitoneal
# Description: as §1
# (b) Influence of alpha-methyltyrosine
# At time 0, the animals receive, by intraperitoneal administration, either distilled water or alphamethyltyrosine at a dose of 64 mg.kg^-1; after 150 minutes, they receive, by intraperitoneal administration, the medicament according to the invention, obtained in accordance with Example III, at a dose of 8 mg.kg^-1.
# The animals are observed under the conditions described above in the study of the stereotypies in rats.
# rats [6] = assay: Study of the stereotypies in rats; settings: comparison of isomers, 32 mg/kg administered orally, schematic grades, 32 mg/kg
# Description: Study of the stereotypies in rats
# as §1
structure (smiles),measurement,setting,value
"CC1CC(c2ccc(Cl)cc2)C(c2ccccc2)C(=O)O1 (stereo not drawn) [Example III, Trans-4-(4'-chlorophenyl)-6-methyl-3-phenyl-3,4,5,6-tetrahydropyrone-2, IIIα]","surface area of the curve of the stereotypies, medicament by itself",rats [1],63
same,"surface area of the curve of the stereotypies, medicament administered after pimozide",rats [1]; 30 min after pimozide 1 mg.kg^-1 intraperitoneal,17
same,Anti-apomorphine action,mice [2],persists
same,Anti-reserpine action,mice [3],less significant
same,Increase in the motor activity in mice,mice [4],less significant
same,"surface area of the curve of the stereotypies, medicament by itself",rats [5],63
same,"surface area of the curve of the stereotypies, medicament + alpha-methyltyrosine",rats [5]; 150 min after alpha-methyltyrosine 64 mg.kg^-1 intraperitoneal,60.8
same,Stereotypy-forming action on rats,rats [6]; listed as 100% of α,0
same,Stereotypy-forming action on rats,rats [6]; listed as α diastereoisomer,virtually disappears

# From patent US4287206A, “Halogen derivatives of 8-hydroxycarboxylic acids; the processes for their preparation and medicaments in which they are present” (priority 1978, dated 1981)
